Starred links: 1 amine or outer side, 2 acyl side, 3 side chain; linkers in the order of their positions; H or OH if unused. Positions of bridges follow the written chain, without caps; N, C: chain ends. Non-standard residues stand in square brackets, D forms with d. Residues, ends and D or L forms follow the SMILES beside them. *: point of attachment. X41 = C[N+]1(CCCCCCCc2cn(-c3ccc(C[C@H](N[*:1])C(=O)[*:2])cc3)nn2)CCOCC1; X36 = C[N+]1(CCCc2cn(-c3ccc(C[C@H](N[*:1])C(=O)[*:2])cc3)nn2)CCOCC1; X6 = C[N+](C)(C)CCCCCCCc1cn(-c2ccc(C[C@H](N[*:1])C(=O)[*:2])cc2)nn1; X33 = C[N+](C)(C)CCCCc1cn(-c2ccc(C[C@H](N[*:1])C(=O)[*:2])cc2)nn1; Me3N+(CH2)2O(CH2)2O(CH2)2CO = C[N+](C)(C)CCOCCOCCC(=O)*; Trp(7-Me) = Cc1cccc2c(C[C@H](N)C(=O)O)c[nH]c12; Abu(4-yl) = O=C([C@H](CC[*:3])N[*:1])[*:2]; Lys(Me3) = C[N+](C)(C)CCCC[C@H](N)C(=O)O; 2Nal = N[C@@H](Cc1ccc2ccccc2c1)C(=O)O; AEF = NCCOc1ccc(C[C@H](N)C(=O)O)cc1; 3Pal = N[C@@H](Cc1cccnc1)C(=O)O; Lys(Me) = CNCCCC[C@H](N)C(=O)O; Pen = CC(C)(S)[C@H](N)C(=O)O; αMeC = C[C@](N)(CS)C(=O)O; Thp = NC1(C(=O)O)CCOCC1; X3 = C[N+](C)(C)CCCCC*; Me2NCH2CH2 = CN(C)CC*; X25 = COCCOCCN(C)*; Sar = CNCC(=O)O
Legend:
[1] = target: T1, IL-23R (Homo sapiens, UniProt Q5VWK5); experiment: IL23R Reporter Assay; type: cell-based; conditions: HEK293 cells containing IL-23R, IL-12RP1 and STAT-inducible firefly luciferase reporter; 10 ng/mL IL-23 (EC90); 5 h at 37° C.; read-out: IL23R Reporter Assay
T1 construct: host or cells: HEK293
T1 sequence (Q5VWK5 24-629): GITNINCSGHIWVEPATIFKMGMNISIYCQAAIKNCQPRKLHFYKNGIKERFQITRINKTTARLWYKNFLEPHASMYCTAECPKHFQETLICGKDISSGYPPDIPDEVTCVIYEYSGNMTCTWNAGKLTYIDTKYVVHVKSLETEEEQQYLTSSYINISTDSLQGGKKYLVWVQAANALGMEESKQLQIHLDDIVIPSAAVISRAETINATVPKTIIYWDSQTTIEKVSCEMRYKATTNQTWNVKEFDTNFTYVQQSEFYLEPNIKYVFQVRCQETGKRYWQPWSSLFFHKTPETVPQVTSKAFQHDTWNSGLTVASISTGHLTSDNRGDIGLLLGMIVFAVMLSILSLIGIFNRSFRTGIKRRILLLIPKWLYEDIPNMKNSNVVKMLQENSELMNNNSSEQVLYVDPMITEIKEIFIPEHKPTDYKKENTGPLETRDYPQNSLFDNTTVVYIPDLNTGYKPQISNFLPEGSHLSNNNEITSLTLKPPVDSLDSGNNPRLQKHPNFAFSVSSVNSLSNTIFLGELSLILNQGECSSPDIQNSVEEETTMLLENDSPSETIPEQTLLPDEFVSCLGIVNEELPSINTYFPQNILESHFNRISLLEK

[2] = Exposed Polar Surface Area (EPSA); type: physicochemical; conditions: SFC on Chirex 3014 column; sample 1 mM DMSO stock; read-out: EPSA
Method in brief: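 SFC retention on a Chirex 3014 (S-valine/(R)-1-(α-naphthyl)ethylamine) column at 35 °C, 4 mL/min, 14 MPa outlet, 5–60% methanol/20 mM ammonium formate gradient in CO2. Retention times converted to EPSA (Å²) via linear calibration with 8 standards; samples from 1 mM DMSO stock, run in duplicate.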

Row | Structure (SMILES) | IC50 [1] [nM] | EPSA [2] [A^2]
1 | CC(=O)N[C@@H]1C(=O)N[C@@H](CC(=O)N(C)C)C(=O)N[C@@H]([C@@H](C)O)C(=O)N[C@@H](Cc2c[nH]c3c(C)cccc23)C(=O)N[C@@H](CCCCN(C)C(C)=O)C(=O)N[C@H](C(=O)N[C@@H](Cc2ccc(OCCN(C)C)cc2)C(=O)N[C@@H](Cc2ccc3ccccc3c2)C(=O)NC2(C(=O)N[C@@H](CCCCN(C)C(C)=O)C(=O)N[C@@H](CC(N)=O)C(=O)N[C@@H](Cc3cccnc3)C(=O)N(C)CC(=O)N(C)C)CCOCC2)C(C)(C)SSC1(C)C [compound 122, MeCO-Pen(3)-N(N(Me)2)-T-7MeW-K(NMeAc)-Pen(3)-AEF(N(Me)2)-2Nal-THP-K(NMeAc)-N-3Pya-Sar-CON(Me)2] (Ac-[Pen]D(NMe2)T[Trp(7-Me)][Lys(Me)](Ac)[Pen]Y(Me2NCH2CH2)[2Nal][Thp][Lys(Me)](Ac)N[3Pal][Sar]-NMe2; disulfide 1-6) | 2.1 | 141
2 | CC(=O)NCCCC[C@@H]1NC(=O)[C@H](Cc2c[nH]c3ccccc23)NC(=O)[C@H]([C@@H](C)O)NC(=O)[C@H](CC(N)=O)NC(=O)[C@@H](NC(=O)[C@H](CCCC[N+](C)(C)C)NC(C)=O)CCSC[C@@](C)(C(=O)N[C@@H](Cc2ccc(OCCCCC[N+](C)(C)C)cc2)C(=O)N[C@@H](Cc2ccc3ccccc3c2)C(=O)NC2(C(=O)N[C@@H](CCCCNC(C)=O)C(=O)N[C@@H](CC(N)=O)C(=O)N[C@@H](Cc3cccnc3)C(=O)N(C)CC(N)=O)CCOCC2)NC1=O [compound 517, MeCO-k(Me)3-Abu(1)-N-T-W-K(Ac)-aMeC(1)-TMAPF-2Nal-THP-K(Ac)-N-3Pya-Sar-CONH2] (Ac-[Lys(Me3)][Abu(4-yl)]NTWK(Ac)[αMeC]Y(X3)[2Nal][Thp]K(Ac)N[3Pal][Sar]-NH2; thioether 2-7) | 51 | 241
3 | CC(=O)NCCCC[C@H](NC(=O)C1(NC(=O)[C@H](Cc2ccc3ccccc3c2)NC(=O)[C@H](Cc2ccc(OCCN)cc2)NC(=O)[C@H]2NC(=O)[C@H](CCCCN(C)C(C)=O)NC(=O)[C@H](Cc3c[nH]c4c(C)cccc34)NC(=O)[C@H]([C@@H](C)O)NC(=O)[C@H](CC(=O)N(C)C)NC(=O)[C@@H](NC(=O)CCOCCOCC[N+](C)(C)C)C(C)(C)SSC2(C)C)CCOCC1)C(=O)N[C@@H](CC(N)=O)C(=O)N[C@@H](Cc1cccnc1)C(=O)N(C)CC(N)=O [compound 149, cPEG3aCO-Pen(3)-N(N(Me)2)-T-7MeW-K(NMeAc)-Pen(3)-AEF-2Nal-THP-K(Ac)-N-3Pya-Sar-CONH2] ({Me3N+(CH2)2O(CH2)2O(CH2)2CO}-[Pen]D(NMe2)T[Trp(7-Me)][Lys(Me)](Ac)[Pen][AEF][2Nal][Thp]K(Ac)N[3Pal][Sar]-NH2; disulfide 1-6) | 2.1 | 157
4 | CC(=O)NCCCC[C@@H]1NC(=O)[C@H](Cc2c[nH]c3c(C)cccc23)NC(=O)[C@H]([C@@H](C)O)NC(=O)[C@H](CC(N)=O)NC(=O)[C@@H](NC(C)=O)C(C)(C)SSC(C)(C)[C@@H](C(=O)N[C@@H](Cc2ccc(-n3cc(CCC[N+]4(C)CCOCC4)nn3)cc2)C(=O)N[C@@H](Cc2ccc3ccccc3c2)C(=O)NC2(C(=O)N[C@@H](CCCCNC(C)=O)C(=O)N[C@@H](CC(N)=O)C(=O)N[C@@H](Cc3cccnc3)C(=O)N(C)CC(N)=O)CCOCC2)NC1=O [compound 440] (Ac-[Pen]NT[Trp(7-Me)]K(Ac)[Pen][X36][2Nal][Thp]K(Ac)N[3Pal][Sar]-NH2; disulfide 1-6 (inferred)) | 2 | 163
5 | CC(=O)N(C)CCCC[C@@H]1NC(=O)[C@H](Cc2c[nH]c3c(C)cccc23)NC(=O)[C@H]([C@@H](C)O)NC(=O)[C@H](CC(=O)N(C)C)NC(=O)[C@@H](NC(=O)CCOCCOCC[N+](C)(C)C)C(C)(C)SSC(C)(C)[C@@H](C(=O)N[C@@H](Cc2ccc(-n3cc(CCCCCCC[N+]4(C)CCOCC4)nn3)cc2)C(=O)N[C@@H](Cc2ccc3ccccc3c2)C(=O)NC2(C(=O)N[C@@H](CCCCN(C)C(C)=O)C(=O)N[C@@H](CC(N)=O)C(=O)N[C@@H](Cc3cccnc3)C(=O)N(C)CC(=O)N(C)C)CCOCC2)NC1=O [compound 479, cPEG3aCO-Pen(3)-N(N(Me)2)-T-7MeW-K(NMeAc)-Pen(3)-F(4TzIMMo7)-2Nal-THP-K(NMeAc)-N-3Pya-Sar-CON(Me)2] ({Me3N+(CH2)2O(CH2)2O(CH2)2CO}-[Pen]D(NMe2)T[Trp(7-Me)][Lys(Me)](Ac)[Pen][X41][2Nal][Thp][Lys(Me)](Ac)N[3Pal][Sar]-NMe2; disulfide 1-6) | 3.4 | 158
6 | CC(=O)N(C)CCCC[C@@H]1NC(=O)[C@H](Cc2c[nH]c3c(C)cccc23)NC(=O)[C@H]([C@@H](C)O)NC(=O)[C@H](CC(=O)N(C)C)NC(=O)[C@@H](NC(=O)CCOCCOCC[N+](C)(C)C)C(C)(C)SSC(C)(C)[C@@H](C(=O)N[C@@H](Cc2ccc(-n3cc(CCCCCCC[N+](C)(C)C)nn3)cc2)C(=O)N[C@@H](Cc2ccc3ccccc3c2)C(=O)NC2(C(=O)N[C@@H](CCCCN(C)C(C)=O)C(=O)N[C@@H](CC(N)=O)C(=O)N[C@@H](Cc3cccnc3)C(=O)N(C)CC(=O)N(C)C)CCOCC2)NC1=O [compound 486, cPEG3aCO-Pen(3)-N(N(Me)2)-T-7MeW-K(NMeAc)-Pen(3)-F(4TzlTMA7)-2Nal-THP-K(NMeAc)-N-3Pya-Sar-CON(Me)2] ({Me3N+(CH2)2O(CH2)2O(CH2)2CO}-[Pen]D(NMe2)T[Trp(7-Me)][Lys(Me)](Ac)[Pen][X6][2Nal][Thp][Lys(Me)](Ac)N[3Pal][Sar]-NMe2; disulfide 1-6) | 4.4 | 164
7 | COCCOCCN(C)C(=O)CN(C)C(=O)[C@H](Cc1cccnc1)NC(=O)[C@H](CC(N)=O)NC(=O)[C@H](CCC(=O)O)NC(=O)C1(NC(=O)[C@H](Cc2ccc3ccccc3c2)NC(=O)[C@H](Cc2ccc(OCCN)cc2)NC(=O)[C@H]2NC(=O)[C@H](CCCCNC(C)=O)NC(=O)[C@H](Cc3c[nH]c4c(C)cccc34)NC(=O)[C@H]([C@@H](C)O)NC(=O)[C@H](CC(N)=O)NC(=O)[C@@H](NC(C)=O)C(C)(C)SSC2(C)C)CCOCC1 [compound 113] (Ac-[Pen]NT[Trp(7-Me)]K(Ac)[Pen][AEF][2Nal][Thp]EN[3Pal][Sar]-X25; disulfide 1-6 (inferred)) | 3.8 | 169
8 | CC(=O)NCCCC[C@@H]1NC(=O)[C@H](Cc2c[nH]c3c(C)cccc23)NC(=O)[C@H]([C@@H](C)O)NC(=O)[C@H](CC(N)=O)NC(=O)[C@@H](NC(=O)CCOCCOCC[N+](C)(C)C)C(C)(C)SSC(C)(C)[C@@H](C(=O)N[C@@H](Cc2ccc(-n3cc(CCCC[N+](C)(C)C)nn3)cc2)C(=O)N[C@@H](Cc2ccc3ccccc3c2)C(=O)NC2(C(=O)N[C@@H](CCCCNC(C)=O)C(=O)N[C@@H](CC(N)=O)C(=O)N[C@@H](Cc3cccnc3)C(=O)N(C)CC(N)=O)CCOCC2)NC1=O [compound 424, cPEG3aCO-Pen(3)-N-T-7MeW-K(Ac)-Pen(3)-F(4TzlTMA4)-2Nal-THP-K(Ac)-N-3Pya-Sar-CONH2] ({Me3N+(CH2)2O(CH2)2O(CH2)2CO}-[Pen]NT[Trp(7-Me)]K(Ac)[Pen][X33][2Nal][Thp]K(Ac)N[3Pal][Sar]-NH2; disulfide 1-6) | 2.6 | 165
9 | CC(=O)N(C)CCCC[C@@H]1NC(=O)[C@H](Cc2ccccc2)NC(=O)[C@H]([C@@H](C)O)NC(=O)[C@H](CC(=O)N(C)C)NC(=O)[C@@H](NC(=O)CCOCCOCC[N+](C)(C)C)C(C)(C)SSC(C)(C)[C@@H](C(=O)N[C@@H](Cc2ccc(OCCCCC[N+](C)(C)C)cc2)C(=O)N[C@@H](Cc2ccc3ccccc3c2)C(=O)NC2(C(=O)N[C@@H](CCCCN(C)C(C)=O)C(=O)N[C@@H](CC(N)=O)C(=O)N[C@@H](Cc3cccnc3)C(=O)N(C)CC(=O)N(C)C)CCOCC2)NC1=O [compound 510, cPEG3aCO-Pen(3)-N(N(Me)2)-T-F-K(NMeAc)-Pen(3)-TMAPF-2Nal-THP-K(NMeAc)-N-3Pya-Sar-CONMe2] ({Me3N+(CH2)2O(CH2)2O(CH2)2CO}-[Pen]D(NMe2)TF[Lys(Me)](Ac)[Pen]Y(X3)[2Nal][Thp][Lys(Me)](Ac)N[3Pal][Sar]-NMe2; disulfide 1-6) | > 1220 | 201
10 | CC(=O)N[C@@H]1C(=O)N[C@@H](CC(=O)N(C)C)C(=O)N[C@@H]([C@@H](C)O)C(=O)N[C@@H](Cc2c[nH]c3c(C)cccc23)C(=O)N[C@H](COCCOCC[N+](C)(C)C)C(=O)N[C@H](C(=O)N[C@@H](Cc2ccc(OCCOCCOCC[N+](C)(C)C)cc2)C(=O)N[C@@H](Cc2ccc3ccccc3c2)C(=O)NC2(C(=O)N[C@@H](COCCOCC[N+](C)(C)C)C(=O)N[C@@H](CC(N)=O)C(=O)N[C@@H](Cc3cccnc3)C(=O)N(C)CC(=O)N(C)C)CCOCC2)C(C)(C)SSC1(C)C (relative stereo) [compound 255, MeCO-Pen(3)-N(N(Me)2)-T-7MeW-APEG2Ser(R*)-Pen(3)-APEG3F-2Nal-THP-APEG2Ser(S*)-N-3Pya-Sar-CON(Me)2] | 22 | 141
